Measurements published in US10995073B2 (CANCER RESEARCH TECHNOLOGY LIMITED, priority 2014, dated 2021).

Molecular target: Human Full Length PARG (Homo sapiens (Human), UniProt Q86W56)
Experiment: PARG assay (in vitro enzyme, TR-FRET)
Conditions: PARG biochemical activity; read-out: PARG_EC50_ENZYME
Protocol: PARG In vitro assays were conducted in a total volume of 15 ul in a standard 384 well format. 5 ul of Human Full Length PARG (Produced internally by Astra Zeneca), used at a final reaction concentration of […], was added to 5 ul of Ribosylated PARP substrate (also produced internally by Astra Zeneca) at final reaction concentration of 4.5 nM in assay buffer (50 mM Tris pH7.4, 0.1 mg/ml BSA, 3 mM EDTA, 0.4 mM EGTA, 1 mM DTT, 0.01% Tween 20, 50 mM KCl). The reaction was incubated at room temperature for 10 minutes and then 5 ul detection reagent was added. Detection Reagent consists of 42 nM MAb Anti-6HIS XL665 (CisBio: 61 HISXLB) and 2.25 nM Streptavidin Europium Cryptate (CisBio: 610SAKLB), both at 3× working stock concentrations (final concentrations of 14 nM and 0.75 nM respectively), in a detection buffer of 50 mM Tris pH7.4, BSA at 0.1 mg/ml and KF at 100 mM. Following incubation at room temperature for 60 minutes in the dark, TR-FRET signal was measured at Ex 340 and Em 665 and Em 620. A ratio was calculated as Em665/EM620x104 for each well and used to calculate percent inhibition for test compounds.

Sequence of Human Full Length PARG (Q86W56 whole entry): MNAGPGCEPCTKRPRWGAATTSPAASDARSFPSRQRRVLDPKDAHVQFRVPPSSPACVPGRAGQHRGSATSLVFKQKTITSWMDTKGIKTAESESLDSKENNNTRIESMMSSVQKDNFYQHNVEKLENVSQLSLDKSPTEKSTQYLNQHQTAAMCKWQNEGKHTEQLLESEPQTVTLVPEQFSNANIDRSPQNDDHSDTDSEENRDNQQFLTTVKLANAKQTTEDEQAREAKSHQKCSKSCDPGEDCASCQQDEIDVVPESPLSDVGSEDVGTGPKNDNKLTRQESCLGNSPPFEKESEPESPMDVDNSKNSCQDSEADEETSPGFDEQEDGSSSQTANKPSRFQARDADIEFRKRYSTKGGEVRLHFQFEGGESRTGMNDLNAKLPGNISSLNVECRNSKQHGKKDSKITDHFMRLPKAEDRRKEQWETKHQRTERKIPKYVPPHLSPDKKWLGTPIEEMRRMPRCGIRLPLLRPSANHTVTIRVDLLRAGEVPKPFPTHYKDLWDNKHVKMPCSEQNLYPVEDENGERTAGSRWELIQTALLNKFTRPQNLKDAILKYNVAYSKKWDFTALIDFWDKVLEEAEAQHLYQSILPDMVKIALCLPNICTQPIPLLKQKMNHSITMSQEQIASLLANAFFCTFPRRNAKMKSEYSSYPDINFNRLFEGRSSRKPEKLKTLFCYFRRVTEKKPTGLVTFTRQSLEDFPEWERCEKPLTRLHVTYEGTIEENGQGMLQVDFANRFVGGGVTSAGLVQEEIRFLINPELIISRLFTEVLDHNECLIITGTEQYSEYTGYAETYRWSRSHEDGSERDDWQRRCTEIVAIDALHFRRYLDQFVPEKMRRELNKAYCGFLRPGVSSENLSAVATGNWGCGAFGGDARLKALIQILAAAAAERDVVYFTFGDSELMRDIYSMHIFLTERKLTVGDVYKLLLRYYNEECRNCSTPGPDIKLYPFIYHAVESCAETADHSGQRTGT

EC50 | SMILES
1.55 µM | Cn1c(=O)n(-c2nnc(N)s2)c2cc(S(=O)(=O)NC3(C)CC3)ccc21 [Example 81, 3-(5-Amino-1,3,4-thiadiazol-2-yl)-1-methyl-N-(1-methylcyclopropyl)-2-oxo-benzimidazole-5-sulfonamide]
12.2 µM | Cc1nsc(-n2c(=O)n(C)c3ccc(S(=O)(=O)NC4(CF)CC4)cc32)n1 [Example 177]
